Measurements published in US20100056520A1, “FORMULATIONS OF PHOSPHOLIPASE ENZYME INHIBITORS” (priority 2006, published 2010).
Values after ≈ are worked out from the molar mass of the structure shown.

How the values were obtained:
[1] = Rat oral absorption/bioavailability after single oral dose of 25 mg/kg; type: in vivo, rats; conditions: for oral exposure with addition of 2% Tween 80: 2% Tween 80/0.5% MC vehicle; for bioavailability: rat, in vivo, rats, read-out: estimated bioavailability; for bioavailability / oral absorption in rats: single oral dose of 25 mg/kg in 2% Tween/0.5% MC
From the text: (§1) Based on the animal data and solubility in pharmaceutical acceptable excipients, formulation development for first in human studies was undertaken based on this formulation.

[2] = Solubility measured at room temperature in water, acid and basic conditions (HPLC); type: physicochemical
Description: The solubility of 4-(3-{5-chloro-1-(diphenylmethyl)-2-[2-({[2-(trifluoromethyl)benzyl]sulfonyl}amino)ethyl]-1H-indol-3-yl}propyl)benzoic acid was measured at room temperature in water, acid and basic conditions.
The solubility of 4-(3-{5-chloro-1-(diphenylmethyl)-2-[2-({[2-(trifluoromethoxy)benzyl]sulfonyl}amino)ethyl]-1H-indol-3-yl}propyl)benzoic acid was measured at room temperature in water, acid and basic conditions.
The solubility of 4-(3-{5-chloro-1-(diphenylmethyl)-2-[2-({[2-fluoro-6-(trifluoromethyl)benzyl]sulfonyl}amino)ethyl]-1H-indol-3-yl}propyl)benzoic acid was measured at room temperature in water, acid and basic conditions.

[3] = Solubility in 2% Tween 80/0.5% methylcellulose vehicle; type: physicochemical; conditions: for solubility: 2% Tween 80/0.5% methylcellulose vehicle, aqueous with cosolvent or surfactant or cyclodextrin, read-out: solubility in 2% Tween 80/0.5% methylcellulose (MC) vehicle
From the text: as §1

ApoE Mice = assay: Minimum efficacious exposure in ApoE mice; type: in vivo
[4] = system: carrageenan-induced paw edema; assay: Rat carrageenan-induced paw edema (CPE) study; type: in vivo
Description: Data from a rat carrageenan-induced paw edema (CPE) study indicated the minimum efficacious exposure of 4-(3-{5-chloro-1-(diphenylmethyl)-2-[2-({[2-(trifluoromethyl)benzyl]sulfonyl}amino)ethyl]-1H-indol-3-yl}propyl)benzoic acid was 1360 ng*hr/ml.

oral exposure with addition of 2% Tween 80 [1] | bioavailability [1] [%] | oral absorption in rats [1] | solubility ([2]; water, acid and basic conditions, aqueous buffer, below the HPLC detection limit, read-out: intrinsic solubility over the pH range of 1 to 11) [µg/mL] | solubility [3] [µg/mL] | solubility ([2]; water, acid and basic conditions, water, acid and basic conditions, below the HPLC detection limit, read-out: intrinsic solubility in all conditions) [µg/mL] | solubility enhancement by addition of 2% Tween 80 [3] [fold] | solubility in 2% Tween 80/0.5% methylcellulose (MC) vehicle [3] [µg/mL] | solubility ([2]; aqueous solution (water, acid and basic conditions), aqueous buffer, below the HPLC detection limit, read-out: intrinsic solubility of the free acid) [µg/mL] | solubility ([2]; aqueous solution (water, acid and basic conditions), aqueous buffer, read-out: solubility of the anion) [µg/mL] | SMILES | minimum efficacious exposure (ApoE Mice) [ng·h/mL] | minimum efficacious exposure [4] [ng·h/mL]
did not afford adequate oral exposure | < 1 | relatively low | < 0.1 | 115 (≈ 151 µM) |  |  |  |  |  | O=C(O)c1ccc(CCCc2c(CCNS(=O)(=O)Cc3c(F)cccc3C(F)(F)F)n(C(c3ccccc3)c3ccccc3)c3ccc(Cl)cc23)cc1 [4-(3-{5-chloro-1-(diphenylmethyl)-2-[2-({[2-fluoro-6-(trifluoromethyl)benzyl]sulfonyl}amino)ethyl]-1H-indol-3-yl}propyl)benzoic acid] |  | 
did not afford adequate oral exposure | ~1.8 | relatively low |  | 496 (≈ 652 µM) | < 0.0212 | 23.490 | 498 (≈ 654 µM) |  |  | O=C(O)c1ccc(CCCc2c(CCNS(=O)(=O)Cc3ccccc3OC(F)(F)F)n(C(c3ccccc3)c3ccccc3)c3ccc(Cl)cc23)cc1 [4-(3-{5-chloro-1-(diphenylmethyl)-2-[2-({[2-(trifluoromethoxy)benzyl]sulfonyl}amino)ethyl]-1H-indol-3-yl}propyl)benzoic acid] | 2800 | 
 |  |  |  |  |  |  |  | < 0.031 | 0.11 (≈ 0.148 µM) | O=C(O)c1ccc(CCCc2c(CCNS(=O)(=O)Cc3ccccc3C(F)(F)F)n(C(c3ccccc3)c3ccccc3)c3ccc(Cl)cc23)cc1 [4-(3-{5-chloro-1-(diphenylmethyl)-2-[2-({[2-(trifluoromethyl)benzyl]sulfonyl}amino)ethyl]-1H-indol-3-yl}propyl)benzoic acid] |  | 1360
